# Results from ChEMBL document CHEMBL3585245, “Synthesis and antiproliferative evaluation of 9-methoxy-6-(piperazin-1-yl)-11H-indeno[1,2-c]quinoline-11-one derivatives. Part 4” (Medchemcomm, 2014).
# Calls of active or inactive are those of the source. The rule behind the calls is not given here.
# System: NCI-H1299
# Test: Induction of apoptosis in human H1299 cells assessed as early apoptotic cells level at 5 uM annexin V and propidium iodide double staining based flow cytometry (reference value: 0.74 +/- 0.31%)
# Type: functional
# Details: not given
row,SMILES,Activity [%]
1,COc1ccc2c(c1)/C(=N\OCC1CO1)c1c-2c(N2CCN(CC3CO3)CC2)nc2ccccc12 (stereo not given),2.45

# System: not listed separately
# Test: Reduction in SIRT1 protein expression in human H1299 cells at 1 to 10 uM incubated for 24 hrs by Western blotting method
# Type: functional, cell-based
# Details: NCI-H1299
row,SMILES,Activity
1,COc1ccc2c(c1)/C(=N\OCC1CO1)c1c-2c(N2CCN(CC3CO3)CC2)nc2ccccc12 (stereo not given),Active

# System: NCI-H1299
# Test: Induction of apoptosis in human H1299 cells assessed as early apoptotic cells level at 1 uM annexin V and propidium iodide double staining based flow cytometry (reference value: 0.4 +/- 0.17%)
# Type: functional
# Details: not given
row,SMILES,Activity [%]
1,COc1ccc2c(c1)C(=O)c1c-2c(N2CCN(CC3CO3)CC2)nc2ccccc12 (stereo not given),1.83

# System: Detroit 551
# Test: Antiproliferative activity against human Detroit 551 cells incubated for 72 hrs by MTT assay
# Type: functional, cell-based
# Details: Detroit 551, 72 h
row,SMILES,IC50 [µM]
1,COc1ccc2c(c1)/C(=N\OCC1CO1)c1c-2c(N2CCN(CC3CO3)CC2)nc2ccccc12 (stereo not given),7.95

# System: NCI-H1299
# Test: Induction of apoptosis in human H1299 cells assessed as early apoptotic cells level at 1 uM annexin V and propidium iodide double staining based flow cytometry (reference value: 0.74 +/- 0.31%)
# Type: functional
# Details: not given
row,SMILES,Activity [%]
1,COc1ccc2c(c1)/C(=N\OCC1CO1)c1c-2c(N2CCN(CC3CO3)CC2)nc2ccccc12 (stereo not given),1.38

# System: NCI-H1299
# Test: Induction of apoptosis in human H1299 cells assessed as early apoptotic cells level at 10 uM annexin V and propidium iodide double staining based flow cytometry (reference value: 0.4 +/- 0.17%)
# Type: functional
# Details: not given
row,SMILES,Activity [%]
1,COc1ccc2c(c1)C(=O)c1c-2c(N2CCN(CC3CO3)CC2)nc2ccccc12 (stereo not given),3.29

# System: NCI-H1299
# Test: Induction of apoptosis in human H1299 cells assessed as late apoptotic cells level at 10 uM annexin V and propidium iodide double staining based flow cytometry (reference value: 2.62 +/- 0.75%)
# Type: functional
# Details: not given
row,SMILES,Activity [%]
1,COc1ccc2c(c1)/C(=N\OCC1CO1)c1c-2c(N2CCN(CC3CO3)CC2)nc2ccccc12 (stereo not given),17.9

# System: not listed separately
# Test: Reduction in PTEN protein expression in human H1299 cells at 1 to 10 uM incubated for 24 hrs by Western blotting method
# Type: functional, cell-based
# Details: NCI-H1299
row,SMILES,Activity
1,COc1ccc2c(c1)/C(=N\OCC1CO1)c1c-2c(N2CCN(CC3CO3)CC2)nc2ccccc12 (stereo not given),Active

# System: NCI-H1299
# Test: Induction of apoptosis in human H1299 cells assessed as early apoptotic cells level at 5 uM annexin V and propidium iodide double staining based flow cytometry (reference value: 0.4 +/- 0.17%)
# Type: functional
# Details: not given
row,SMILES,Activity [%]
1,COc1ccc2c(c1)C(=O)c1c-2c(N2CCN(CC3CO3)CC2)nc2ccccc12 (stereo not given),1.57

# System: NCI-H1299
# Test: Induction of apoptosis in human H1299 cells assessed as decrease in Bcl2 expression at 1 to 10 uM incubated for 24 hrs by Western blotting method
# Type: functional, cell-based
# Details: not given
row,SMILES,Activity
1,COc1ccc2c(c1)/C(=N\OCC1CO1)c1c-2c(N2CCN(CC3CO3)CC2)nc2ccccc12 (stereo not given),Active

# System: not listed separately
# Test: Antiproliferative activity against human 786-O cells incubated for 72 hrs by MTT assay
# Type: functional, cell-based
# Details: 786-0, 72 h
row,SMILES,IC50 [µM]
1,COc1ccc2c(c1)C(=O)c1c-2c(N2CCN(CC3CO3)CC2)nc2ccccc12 (stereo not given),19.1
2,COc1ccc2c(c1)/C(=N\OCC1CO1)c1c-2c(N2CCN(CC3CO3)CC2)nc2ccccc12 (stereo not given),8.8

# System: NCI-H1299
# Test: Induction of apoptosis in human H1299 cells assessed as early apoptotic cells level at 10 uM annexin V and propidium iodide double staining based flow cytometry (reference value: 0.74 +/- 0.31%)
# Type: functional
# Details: not given
row,SMILES,Activity [%]
1,COc1ccc2c(c1)/C(=N\OCC1CO1)c1c-2c(N2CCN(CC3CO3)CC2)nc2ccccc12 (stereo not given),1.6

# System: NCI-H1299
# Test: Induction of apoptosis in human H1299 cells assessed as increase in PARP cleavage at 1 to 10 uM incubated for 24 hrs by Western blotting method
# Type: functional, cell-based
# Details: not given
row,SMILES,Activity
1,COc1ccc2c(c1)/C(=N\OCC1CO1)c1c-2c(N2CCN(CC3CO3)CC2)nc2ccccc12 (stereo not given),Active

# System: not listed separately
# Test: Reduction in p-Akt protein expression in human H1299 cells at 1 to 10 uM incubated for 24 hrs by Western blotting method
# Type: functional, cell-based
# Details: NCI-H1299
row,SMILES,Activity
1,COc1ccc2c(c1)/C(=N\OCC1CO1)c1c-2c(N2CCN(CC3CO3)CC2)nc2ccccc12 (stereo not given),Active

# System: NCI-H1299
# Test: Induction of apoptosis in human H1299 cells assessed as late apoptotic cells level at 5 uM annexin V and propidium iodide double staining based flow cytometry (reference value: 1.9 +/- 0.12%)
# Type: functional
# Details: not given
row,SMILES,Activity [%]
1,COc1ccc2c(c1)C(=O)c1c-2c(N2CCN(CC3CO3)CC2)nc2ccccc12 (stereo not given),4.98

# System: NCI-H1299
# Test: Induction of apoptosis in human H1299 cells assessed as late apoptotic cells level at 10 uM annexin V and propidium iodide double staining based flow cytometry (reference value: 1.9 +/- 0.12%)
# Type: functional
# Details: not given
row,SMILES,Activity [%]
1,COc1ccc2c(c1)C(=O)c1c-2c(N2CCN(CC3CO3)CC2)nc2ccccc12 (stereo not given),7.57

# System: Nucleic Acid
# Test: Induction of DNA intercalation of negative supercoiled Escherichia coli pBR322 DNA at 10 uM incubated for 12 hrs by ethidium bromide staining based DNA mobility assay
# Type: nucleic-acid assay
# Details: not given
row,Activity,SMILES
1,Active,COc1ccc2c(c1)/C(=N\OCC1CO1)c1c-2c(N2CCN(CC3CO3)CC2)nc2ccccc12 (stereo not given)

# System: NCI-H1299
# Test: Induction of DNA damage in human H1299 cells at 5 uM incubated for 24 hrs by single cell electrophoresis-based alkaline comet assay
# Type: functional
# Details: not given
row,SMILES,Activity
1,COc1ccc2c(c1)/C(=N\OCC1CO1)c1c-2c(N2CCN(CC3CO3)CC2)nc2ccccc12 (stereo not given),Active

# System: HeLa
# Test: Antiproliferative activity against human HeLa cells incubated for 72 hrs by MTT assay
# Type: functional, cell-based
# Details: not given
row,IC50 [µM],SMILES
1,10.7,COc1ccc2c(c1)C(=O)c1c-2c(N2CCN(CC3CO3)CC2)nc2ccccc12 (stereo not given)
2,0.54,COc1ccc2c(c1)/C(=N\OCC1CO1)c1c-2c(N2CCN(CC3CO3)CC2)nc2ccccc12 (stereo not given)

# System: NCI-H1299
# Test: Induction of apoptosis in human H1299 cells assessed as late apoptotic cells level at 5 uM annexin V and propidium iodide double staining based flow cytometry (reference value: 2.62 +/- 0.75%)
# Type: functional
# Details: not given
row,SMILES,Activity [%]
1,COc1ccc2c(c1)/C(=N\OCC1CO1)c1c-2c(N2CCN(CC3CO3)CC2)nc2ccccc12 (stereo not given),8.25

# System: AGS
# Test: Antiproliferative activity against human AGS cells incubated for 72 hrs by MTT assay
# Type: functional, cell-based
# Details: not given
row,IC50 [µM],SMILES
1,21.4,COc1ccc2c(c1)C(=O)c1c-2c(N2CCN(CC3CO3)CC2)nc2ccccc12 (stereo not given)
2,8.76,COc1ccc2c(c1)/C(=N\OCC1CO1)c1c-2c(N2CCN(CC3CO3)CC2)nc2ccccc12 (stereo not given)

# System: NCI-H1299
# Test: Antiproliferative activity against human H1299 cells incubated for 72 hrs by MTT assay
# Type: functional, cell-based
# Details: NCI-H1299, 72 h
row,IC50 [µM],SMILES
1,7.92,COc1ccc2c(c1)C(=O)c1c-2c(N2CCN(CC3CO3)CC2)nc2ccccc12 (stereo not given)
2,1.18,COc1ccc2c(c1)/C(=N\OCC1CO1)c1c-2c(N2CCN(CC3CO3)CC2)nc2ccccc12 (stereo not given)

# System: NCI-H1299
# Test: Induction of apoptosis in human H1299 cells assessed as increase in BAX cleavage at 1 to 10 uM incubated for 24 hrs by Western blotting method
# Type: functional, cell-based
# Details: not given
row,SMILES,Activity
1,COc1ccc2c(c1)/C(=N\OCC1CO1)c1c-2c(N2CCN(CC3CO3)CC2)nc2ccccc12 (stereo not given),Active

# System: NCI-H1299
# Test: Induction of DNA damage in human H1299 cells at 10 uM incubated for 24 hrs by single cell electrophoresis-based alkaline comet assay
# Type: functional
# Details: not given
row,SMILES,Activity
1,COc1ccc2c(c1)C(=O)c1c-2c(N2CCN(CC3CO3)CC2)nc2ccccc12 (stereo not given),Active

# System: NCI-H1299
# Test: Induction of apoptosis in human H1299 cells assessed as late apoptotic cells level at 1 uM annexin V and propidium iodide double staining based flow cytometry (reference value: 2.62 +/- 0.75%)
# Type: functional
# Details: not given
row,SMILES,Activity [%]
1,COc1ccc2c(c1)/C(=N\OCC1CO1)c1c-2c(N2CCN(CC3CO3)CC2)nc2ccccc12 (stereo not given),4.5

# System: not listed separately
# Test: Reduction in HDAC6 protein expression in human H1299 cells at 1 to 10 uM incubated for 24 hrs by Western blotting method
# Type: functional, cell-based
# Details: NCI-H1299
row,SMILES,Activity
1,COc1ccc2c(c1)/C(=N\OCC1CO1)c1c-2c(N2CCN(CC3CO3)CC2)nc2ccccc12 (stereo not given),Active

# System: not listed separately
# Test: Antiproliferative activity against human SKHep cells incubated for 72 hrs by MTT assay
# Type: functional, cell-based
# Details: not given
row,SMILES,IC50 [µM]
1,COc1ccc2c(c1)C(=O)c1c-2c(N2CCN(CC3CO3)CC2)nc2ccccc12 (stereo not given),> 30
2,COc1ccc2c(c1)/C(=N\OCC1CO1)c1c-2c(N2CCN(CC3CO3)CC2)nc2ccccc12 (stereo not given),0.99

# System: NCI-H1299
# Test: Induction of apoptosis in human H1299 cells assessed as increase in caspase-3 activation at 1 to 10 uM incubated for 24 hrs by Western blotting method
# Type: functional, cell-based
# Details: not given
row,SMILES,Activity
1,COc1ccc2c(c1)/C(=N\OCC1CO1)c1c-2c(N2CCN(CC3CO3)CC2)nc2ccccc12 (stereo not given),Active

# System: not listed separately
# Test: Reduction in FOXO3a protein expression in human H1299 cells at 1 to 10 uM incubated for 24 hrs by Western blotting method
# Type: functional, cell-based
# Details: NCI-H1299
row,SMILES,Activity
1,COc1ccc2c(c1)/C(=N\OCC1CO1)c1c-2c(N2CCN(CC3CO3)CC2)nc2ccccc12 (stereo not given),Active

# System: MDA-MB-231
# Test: Antiproliferative activity against human MDA-MB-231 cells incubated for 72 hrs by MTT assay
# Type: functional, cell-based
# Details: MDA-MB-231, 72 h
row,IC50 [µM],SMILES
1,7.65,COc1ccc2c(c1)C(=O)c1c-2c(N2CCN(CC3CO3)CC2)nc2ccccc12 (stereo not given)
2,0.79,COc1ccc2c(c1)/C(=N\OCC1CO1)c1c-2c(N2CCN(CC3CO3)CC2)nc2ccccc12 (stereo not given)

# System: SAS
# Test: Antiproliferative activity against human SAS cells incubated for 72 hrs by MTT assay
# Type: functional, cell-based
# Details: not given
row,SMILES,IC50 [µM]
1,COc1ccc2c(c1)C(=O)c1c-2c(N2CCN(CC3CO3)CC2)nc2ccccc12 (stereo not given),> 30
2,COc1ccc2c(c1)/C(=N\OCC1CO1)c1c-2c(N2CCN(CC3CO3)CC2)nc2ccccc12 (stereo not given),6.2

# System: NCI-H1299
# Test: Induction of apoptosis in human H1299 cells assessed as increase in caspase-7 activation at 1 to 10 uM incubated for 24 hrs by Western blotting method
# Type: functional, cell-based
# Details: not given
row,SMILES,Activity
1,COc1ccc2c(c1)/C(=N\OCC1CO1)c1c-2c(N2CCN(CC3CO3)CC2)nc2ccccc12 (stereo not given),Active

# System: NCI-H1299
# Test: Induction of apoptosis in human H1299 cells assessed as late apoptotic cells level at 1 uM annexin V and propidium iodide double staining based flow cytometry (reference value: 1.9 +/- 0.12%)
# Type: functional
# Details: not given
row,SMILES,Activity [%]
1,COc1ccc2c(c1)C(=O)c1c-2c(N2CCN(CC3CO3)CC2)nc2ccccc12 (stereo not given),4.51
